“And” between values parts separate entries of the source, which are not always exact repeats. Equal values may be shown once.
Assays:
[1] = tested on: patients with schizophrenia or schizoaffective disorder; assay: SANS negative symptoms; randomized placebo-controlled 8-week trial of adjunctive pregnenolone (100, 300, then 500 mg/day oral); type: in vivo, human; settings: for SANS Total, change: text prints it as positive mean change (improvement); for SANS Total, difference PG vs placebo: points; for SANS Affect subscale score / SANS Alogia subscale score / SANS Anhedonia/asociality subscale score / SANS Attention subscale score / SANS Avolition/apathy subscale score / SANS Total score: mean ± SD, n = 8
Experimental: (§1) Study Design and Subjects. Disclosed herein is a placebo-controlled, double-blind, parallel group, randomized trial of adjunctive pregnenolone for the treatment of cognitive and negative symptoms in patients with schizophrenia or schizoaffective disorder. […] Patients received a total of 6 study visits, which took place every two weeks. […] The trial was conducted at a single site, the Durham Veterans Affairs Medical Center in Durham, N.C. The protocol was approved by the local institutional review board and conducted under FDA Investigational New Drug (IND) #71,768. The ClinicalTrials.gov number for this study is NCT00560937.
Subjects were outpatients between the ages of 18 and 65 with schizophrenia or schizoaffective disorder diagnosed by DSM-IV/DSM-IV-TR criteria utilizing the Structured Clinical Interview (First et al., 1996) and medical records. All subjects were between the ages of 18-65 and provided informed consent. Duration of illness was greater than one year for all enrolled patients. To be eligible for the trial, patients had to be taking a second-generation antipsychotic (aripiprazole, olanzapine, quetiapine, or risperidone) for at least 8 weeks, with no changes in antipsychotic dosing in the preceding 4 weeks. Patients receiving first-generation antipsychotics were excluded. Concomitant psychiatric medications were permissible (antidepressants, mood stabilizers, anticholinergics, other), provided that patients were receiving stable doses of all of these medications in the 4 weeks preceding the trial and throughout the entire duration of the study. Any change in psychiatric medications at any point during the study rendered a patient ineligible to continue participation.
(§2) During the screening visit (Visit 1), patients received a physical exam, vital signs, and electrocardiogram (EKG), as well as baseline laboratory measures consisting of serum electrolytes, glucose, creatinine, blood urea nitrogen (chemistry 7 panel), liver function tests, complete blood count (CBC), urinalysis, urine toxicology test, thyroid stimulating hormone (TSH), and prolactin, and serum pregnancy test if female. These tests were also repeated at the completion of the study (Visit 6). In addition, patients received an interim EKG 4 weeks post-randomization, as well as a serum pregnancy test if female (Visit 4). Patients also received a chemistry 7 panel, CBC, and liver function tests at Visits 2, 3, 4, and 5 (i.e., at all study visits). Psychiatric symptoms were assessed at baseline using the Scale for the Assessment of Negative Symptoms (Andreasen, 1983), the Positive and Negative Symptom Scale (PANSS; Kay et al., 1987), the Calgary Depression Rating Scale (CDRS; Addington et al., 1990), the Clinical Global Impressions Improvement (CGI-I) and Severity (CGI-S) scales, the Barnes Akathisia Scale (BAS; Barnes, 1989), the Simpson Angus Scale for Extrapyramidal Symptoms (SAS; Simpson & Angus, 1970), the Quality of Life Scale (QOL; Heinrichs et al., 1984), and the Hillside Side Effects Scale. One research nurse with five years of experience in the conduction of schizophrenia clinical trials completed both psychiatric and cognitive assessments throughout the study, and was trained to one point of divergence on each PANSS item.

[2] = tested on: patients with schizophrenia or schizoaffective disorder; assay: Psychiatric rating scales (PANSS, CGI, Calgary, SAS, BAS, AIMS, Quality of Life); same trial; type: in vivo, human; set-up: CGI-S score / Calgary Depression Scale, difference PG vs placebo / Heinrich Carpenter subscore Interpersonal and social work, difference PG vs placebo / Heinrich Carpenter subscore Occupational role function, difference PG vs placebo / Heinrich Carpenter subscore Other residual symptoms, difference PG vs placebo: scale not given here; settings: for Heinrich Carpenter Quality of Life Scale, difference PG vs placebo: not significant (p=0.32); for PANSS General subscore / PANSS Negative symptoms subscore / PANSS Positive symptoms subscore / PANSS total score: mean; for CGI-I score: Week 8 (final), 2=much improved, 3=minimally improved, n = 9
Experimental: as §1, §2

[3] = single oral dose 175 mg; over the course of 4-8 hours; Roberts, 1995; cited from earlier work
[4] = Difference in change from Week 0 to Week 8
[5] = Week 0 (baseline), listed as pregnenolone
[6] = Difference in changes from Week 0-8
[7] = Difference in changes from Week 0-8, points
[8] = Difference in changes from Week 0-8, points, listed as pregnenolone

With `CC(=O)[C@H]1CC[C@H]2[C@@H]3CC=C4C[C@@H](O)CC[C@]4(C)[C@H]3CC[C@]12C` [PG, pregnenolone] the “SANS Affect subscale, change” value ([1]; Change from Week 0 to Week 8) was −4.3 ± 1.7, the “SANS Alogia subscale, change” value ([1]; Change from Week 0 to Week 8) was −1.9 ± 0.8 and the “SANS Anhedonia/asociality subscale, change” value ([1]; Change from Week 0 to Week 8) was −2.4 ± 1.3. For the same compound, the “SANS Attention subscale, change” value ([1]; Change from Week 0 to Week 8) was −1.6 ± 0.4, the “SANS Avolition/apathy subscale, change” value ([1]; Change from Week 0 to Week 8) was −0.3 ± 0.3 and the “SANS Total, change” value ([1]; Change from Week 0 to Week 8) was −10.4 ± 10.2. The “SANS Total, change” value ([1]; Change from Week 0 to Week 8, listed as pregnenolone) was 10.38±10.18, the “SANS Affect subscale, difference PG vs placebo” value [1, 4] was −4.5 ± 1.9 and the “SANS Alogia subscale, difference PG vs placebo” value [1, 4] was −1.5 ± 0.8. For the same compound, the “SANS Anhedonia/asociality subscale, difference PG vs placebo” value [1, 4] was −1.6 ± 1.3, the “SANS Attention subscale, difference PG vs placebo” value [1, 4] was −0.5 ± 0.5 and the “SANS Avolition/apathy subscale, difference PG vs placebo” value [1, 4] was 0.1 ± 0.6. For the same compound, the “SANS Total, difference PG vs placebo” value [1, 4] was −8.0 ± 3.7, the “SANS Total, difference PG vs placebo” value ([1]; Difference in change from Week 0 to Week 8, listed as Pregnenolone) was “approximately 8” and the “SANS Affect subscale score” value ([1]; Week 0 (baseline)) was 13.4 ± 5.0. For the same compound, the “SANS Alogia subscale score” value ([1]; Week 0 (baseline)) was 8.8 ± 3.6, the “SANS Anhedonia/asociality subscale score” value ([1]; Week 0 (baseline)) was 12.0 ± 4.5 and the “SANS Attention subscale score” value ([1]; Week 0 (baseline)) was 5.6 ± 1.1. The “SANS Avolition/apathy subscale score” value ([1]; Week 0 (baseline)) was 8.3 ± 2.5, the “SANS Total score” value ([1]; Week 0 (baseline)) was 50.8 ± 12.2 and the “SANS Total score” value [1, 5] was 47.56±12.09. The “SANS Affect subscale score” value ([1]; Week 4) was 14.3 ± 3.2, the “SANS Alogia subscale score” value ([1]; Week 4) was 7.8 ± 3.2 and the “SANS Anhedonia/asociality subscale score” value ([1]; Week 4) was 10.4 ± 4.1. For the same compound, the “SANS Attention subscale score” value ([1]; Week 4) was 5.3 ± 1.0, the “SANS Avolition/apathy subscale score” value ([1]; Week 4) was 8.1 ± 1.0 and the “SANS Total score” value ([1]; Week 4) was 45.8 ± 8.8. For the same compound, the “SANS Affect subscale score” value ([1]; Week 8) was 11.9 ± 0.4, the “SANS Alogia subscale score” value ([1]; Week 8) was 6.9 ± 2.1 and the “SANS Anhedonia/asociality subscale score” value ([1]; Week 8) was 9.6 ± 3.5. The “SANS Attention subscale score” value ([1]; Week 8) was 4.0 ± 0, the “SANS Avolition/apathy subscale score” value ([1]; Week 8) was 8.0 ± 0.5 and the “SANS Total score” value ([1]; Week 8) was 40.4 ± 3.5. For the same compound, the “CGI-S, change” value ([2]; Changes from Week 0-8) was −0.1, the “Calgary Depression Scale, change” value ([2]; Changes from Week 0-8, n = 7) was −1.6 and the “AIMS, change” value ([2]; Changes from Week 0-8, n = 8) was −1.0. The “Barnes Akathisia Scale, change” value ([2]; Changes from Week 0-8, n = 8) was −0.4, the “Heinrich Carpenter Quality of Life Scale, change” value ([2]; Changes from Week 0-8, n = 8) was 7.9 and the “Heinrich Carpenter subscore Interpersonal and social work, change” value ([2]; Changes from Week 0-8, n = 8) was 5.4. For the same compound, the “Heinrich Carpenter subscore Occupational role function, change” value ([2]; Changes from Week 0-8, n = 8) was 0.9, the “Heinrich Carpenter subscore Other residual symptoms, change” value ([2]; Changes from Week 0-8, n = 8) was 1.6 and the “PANSS General, change” value ([2]; Changes from Week 0-8, n = 8) was −4.5. For the same compound, the “PANSS Negative symptoms, change” value ([2]; Changes from Week 0-8, n = 8) was −2.8, the “PANSS Positive symptoms, change” value ([2]; Changes from Week 0-8, n = 8) was −2.6 and the “PANSS total, change” value ([2]; Changes from Week 0-8, n = 8) was −9.9. For the same compound, the “Simpson-Angus Scale, change” value ([2]; Changes from Week 0-8, n = 8) was −0.1, the “AIMS, difference PG vs placebo” value [2, 6] was −0.6 ± 0.7 and the “Calgary Depression Scale, difference PG vs placebo” value [2, 6] was 0.4 ± 1.6. For the same compound, the “Heinrich Carpenter subscore Interpersonal and social work, difference PG vs placebo” value [2, 6] was 3.6 ± 3.2, the “Heinrich Carpenter subscore Occupational role function, difference PG vs placebo” value [2, 6] was 0.8 ± 0.6 and the “Heinrich Carpenter subscore Other residual symptoms, difference PG vs placebo” value [2, 6] was 0.9 ± 2.2. The “PANSS General, difference PG vs placebo” value [2, 6] was −1.3 ± 2.1, the “PANSS Positive symptoms, difference PG vs placebo” value [2, 6] was −1.6 ± 0.8 and the “Simpson-Angus Scale, difference PG vs placebo” value [2, 6] was −0.2 ± 0.4. The “PANSS Negative symptoms, difference PG vs placebo” value [2, 7] was −1.5 ± 1.4, the “PANSS Negative symptoms, difference PG vs placebo” value [2, 8] was 1.53 and the “PANSS total, difference PG vs placebo” value ([2]; Difference in changes from Week 0-8, points, not significant (p=0.24)) was −4.4 ± 3.6. For the same compound, the “Heinrich Carpenter Quality of Life Scale, difference PG vs placebo” value [2, 7] was 5.3 ± 5.1, the “Heinrich Carpenter Quality of Life Scale, difference PG vs placebo” value [2, 8] was 5.27±5.07 and 5.27 and the AIMS score ([2]; Week 0 (baseline)) was 1.6. For the same compound, the “Barnes Akathisia Scale score” value ([2]; Week 0 (baseline)) was 0.4, the CGI-S score ([2]; Week 0 (baseline)) was 4.0 and the “Calgary Depression Scale score” value ([2]; Week 0 (baseline)) was 2.4. For the same compound, the “Heinrich Carpenter Quality of Life Scale score” value ([2]; Week 0 (baseline)) was 47.5, the “Heinrich Carpenter subscore Interpersonal and social work” value ([2]; Week 0 (baseline)) was 17.9 and the “Heinrich Carpenter subscore Occupational role function” value ([2]; Week 0 (baseline)) was 1.9. The “Heinrich Carpenter subscore Other residual symptoms” value ([2]; Week 0 (baseline)) was 27.8, the “Simpson-Angus Scale score” value ([2]; Week 0 (baseline)) was 1.0 and the CGI-S score [2, 5] was 4.00±0.50. The “PANSS General subscore” value ([2]; Week 0 (baseline)) was 35.5, the “PANSS Negative symptoms subscore” value ([2]; Week 0 (baseline)) was 23.4 and the “PANSS Positive symptoms subscore” value ([2]; Week 0 (baseline)) was 13.6. For the same compound, the PANSS total score ([2]; Week 0 (baseline)) was 72.5, the AIMS score ([2]; Week 4) was 0.9 and the “Barnes Akathisia Scale score” value ([2]; Week 4) was 0.4. The “Simpson-Angus Scale score” value ([2]; Week 4) was 1.3, the “PANSS General subscore” value ([2]; Week 4) was 34.3 and the “PANSS Negative symptoms subscore” value ([2]; Week 4) was 23.2. For the same compound, the “PANSS Positive symptoms subscore” value ([2]; Week 4) was 12.8, the PANSS total score ([2]; Week 4) was 67.9 and the AIMS score ([2]; Week 8) was 0.6. For the same compound, the “Barnes Akathisia Scale score” value ([2]; Week 8) was 0.0, the “Calgary Depression Scale score” value ([2]; Week 8) was 0.9 and the “Heinrich Carpenter Quality of Life Scale score” value ([2]; Week 8) was 55.4. For the same compound, the “Heinrich Carpenter subscore Interpersonal and social work” value ([2]; Week 8) was 23.3, the “Heinrich Carpenter subscore Occupational role function” value ([2]; Week 8) was 2.8 and the “Heinrich Carpenter subscore Other residual symptoms” value ([2]; Week 8) was 29.4. The “Simpson-Angus Scale score” value ([2]; Week 8) was 0.9, the CGI-I score [2] was 2.11 and the CGI-I score ([2]; listed as pregnenolone) was 2.11±0.33 and 2.11. The CGI-S score ([2]; Week 8 (post-treatment)) was 3.9, the CGI-S score ([2]; Week 8 (post-treatment), listed as pregnenolone) was 3.89±0.33 and the “PANSS General subscore” value ([2]; Week 8) was 31.2. For the same compound, the “PANSS Negative symptoms subscore” value ([2]; Week 8) was 20.6, the “PANSS Positive symptoms subscore” value ([2]; Week 8) was 11.9 and the PANSS total score ([2]; Week 8) was 63.6. The “Serum pregnenolone levels after single oral dose” value [3] was “approximately doubles”.

From patent publication US20120142645A1, “NEUROACTIVE STEROID COMPOSITIONS AND METHODS OF USE FOR LOWERING CHOLESTEROL” (priority 2009, published 2012)
